{"source": "patent US20050124554A1", "about": "“Spermidine derivatives for the treatment of chronic neurodegenerative diseases” (priority 2002, published 2005)", "key": {"[1]": {"system": "superoxide production in organotypic slice cultures (CA1 pyramidal cell layer)", "assay": "Superoxide production monitored fluorescently with hydroethidine (HEt)", "format": "cell-based, Wistar rat", "conditions": "10 μM AMPA alone", "protocol": "Hydroethidine (HEt) has been utilised to fluorescently monitor the production of superoxide in primary neuronal cultures [Bindokas et al., (1996), Carriedo et al. (1998)]. A stock solution of HEt was made was made in N2 sparged DMSO (10 mg ml^−1) which was then aliquoted and stored at −80° C. aliquots were used only once before being discarded. Two separate experimental paradigms were employed to test the effect of L-Arg3,4 on superoxide production in response to either AMPA or NMDA stimulation.\nFor the AMA experiments, organotypic slice cultures were loaded with 1 μg ml^−1 HEt in HEPES buffered salt solution (HSS) (in mM): glucose 10, NaCl 144, KCl 5, HEPES 10, MgCl2 1, CaCl2 2, pH 7.4, for 30 minutes in the dark. All subsequent solutions contained HEt to prevent a decrease in signal due to reporter depletion. Images were acquired once per minute for the duration of the experiment on the same system as described above for assessment of cell death. A 10 minute record of baseline superoxide production was produced before the bathing solution was exchanged for HBSS+BEt containing 10 μM AMPA, again for 10 minutes. As shown previously, stimulation of glutamate receptors with AMPA lead to an increase in superoxide production [Bindokas et al., (1996), Carriedo et al. (1998)]. The bathing solution was then exchanged for HBSS+HEt containing both 10 μM AMPA and 300 μM L-Arg3,4 for 10 minutes to test the effect of L-Arg3,4 on superoxide production. In separate control experiments, 300 μM L-Arg3,4 in HSS was incubated with slices to determine if it affected baseline superoxide production on its own.\nAcquired images from the AMPA experiments were then analysed with the OpenLab image analysis package. A region of interest was drawn around the CA1 pyramidal cell layer because this was the cell layer that produced the largest increase in fluorescence in response to AMPA activation. In each image, within the region of interest, the average pixel value was calculated in arbitrary units (AU) to produce a record of fluorescence intensity values over time. A linear regression was then performed on the data to calculate the rate of superoxide production as change in intensity over time (arbitrary units per minute, AU min^−1) for each of the treatments. Data is presented as mean±s.d. Rates of superoxide production were then compared by ANOVA followed by post-hoc comparisons with Bonferroni corrections with significance indicated as * for P<0.05 and ** for P<0.01."}, "models of excitotoxicity": {"system": "models of excitotoxicity", "conditions": "Hartley & Choi 1989; cited from earlier work"}, "[2]": {"system": "acute hippocampal slices (CA1 pyramidal cell layer, Schaffer collateral stimulation)", "assay": "Electrophysiology: evoked field responses / synaptic transmission", "parameters": "species or system Sprague-Dawley rats", "from_the_text": "All animal procedures to produce acute hippocampal slices were approved by the Home Office. Male, 250 g, Sprague-Dawley rats were deeply anaesthetised with halothane and decapitated. The brain was quickly removed, and the hippocampi dissected out and then cut into 300 μm thick transverse slices on a vibratome (Leica, Milton Keynes, UK) in cold cutting solution (in mM: 189 sucrose, 2.5 KCl, 26 NaHCO3, 1.2 NaH2PO4, 10 glucose, 5 MgCl2, 0.1 CaCl2) equilibrated with 5% CO2, 95% O2. Slices were transferred to aCSF (in mM: 10 glucose, 125 NaCl, 5 KCl, 26 NaHCO3, 1 MgCl2, 1.25 NaH2PO4, 2 CaCl2, 10 sucrose) at room temperature, bubbled with 5% CO2 and 95% O2, for at least 1 h before use.\nSlices were then transferred to a submerged perfusion chamber (2 ml volume) for the electrophysiological recordings and were perfused at 10 ml min^−1 at 25° C. with aCSF equilibrated with 5% CO2 and 95% O2, and allowed to equilibrate for 1 h before manipulations were started. Experimental compounds were applied by bath perfusion. L-Arg3,4 was applied at 300 μM and DNQX was applied at 10 μM final concentration. DNQX was diluted from a 40 mM stock in DMSO (final DMSO of 0.025%). The Schaffer collaterals of CA3 were stimulated at voltages from 0 to 30 V with a constant voltage stimulator (Digitimer, Hertfordshire, UK) via a twisted pair stimulating electrode of polyimide coated stainless steel wire (Plastics One, Roanoke, Va.). Field potential responses were recorded with an Axopatch 200B amplifier (Axon Instruments, Foster City, Calif.) in the fast current clamp mode via a 2M KCl filled glass electrode (2-5 MQ) in the CA1 pyramidal cell layer. Responses were filtered at 2 kHz, digitised at 20 kHz with a Digidata 1320A (Axon Instruments), and stored onto hard disk with Clampex 8.1 software (Axon Instruments) running on a Dell Pentium III PC. Data was analysed in Clampfit 8.1 (Axon Instruments).\nStimulus-response (S/R) curves were generated from stimuli from 0 to 30 V in 2 V increments. Bath perfusion of 300 μM L-Arg3,4 in aCSF was applied for 10 min with a sub-maximal stimulus applied every minute to monitor synaptic transmission. A second S/R curve was generated before the perfusion was switched back to plain aCSF. A sub-maximal stimulus was applied every minute during the 15 min wash period after which a third SIR curve was generated. Perfusion of 10 μM DNQX was then started until the response to the sub-maximal stimulus was completely eliminated which always occurred within 10 min. […] In Clampfit, S/R curves were fit to a sigmoidal function of the form: [formula] where R is the magnitude of the evoked response, Rmax is the maximum response, V50 is the voltage which produces a half maximal response, S is the stimulus voltage, and m is proportional to the slope of the linear region of the sigmoid. Data was compared by one way ANOVA."}}, "note": "Several values for one entry are separate records, joined by “and”; a condition that tells them apart may be missing. Equal entries are not always repeated."}
{"smiles": "Cc1o[nH]c(=O)c1CC(N)C(=O)O", "note": "(centres unmarked) [AMPA, reference compound]", "values": [{"measurement": "increase of rate of superoxide production over baseline", "setting": "[1]", "result": "approximately 5 fold"}, {"measurement": "rate of superoxide production", "setting": "[1]", "result": "10.65±3.70", "unit": "AU min-1"}]}
{"smiles": "N[C@H](CCCP(=O)(O)O)C(=O)O", "note": "[D-APV]", "values": [{"measurement": "delay of administration at which effectiveness is lost (therapeutic window)", "setting": "models of excitotoxicity", "result": 30, "unit": "min"}]}
{"smiles": "O=c1[nH]c2cc([N+](=O)[O-])c([N+](=O)[O-])cc2[nH]c1=O", "note": "[DNQX, 6,7-Dinitroquinoxaline-2,3(1H,4H)-dione, reference compound]", "values": [{"measurement": "time to complete elimination of response / synaptic transmission", "setting": "[2]; 10 μM, all slices", "result": "≤ 10", "unit": "min"}, {"measurement": "time to elimination of all transmission", "setting": "[2]; 10 μM, single slice, sub-maximal stimulus", "result": "≤ 5", "unit": "min"}, {"measurement": "effect on evoked responses", "setting": "[2]; bath application, L-Arg3,4 300 μM, DNQX 10 μM", "result": "blocked the evoked response completely"}]}
{"smiles": "C[C@]12N[C@H](Cc3ccccc31)c1ccccc12", "note": "[MK-801]", "values": [{"measurement": "delay of administration at which effectiveness is lost (therapeutic window)", "setting": "models of excitotoxicity", "result": "30 min and 15 min"}]}
{"smiles": "COc1ccc2c(c1)[C@]13CCCC[C@@H]1[C@H](C2)N(C)CC3", "note": "[dextromethorphan]", "values": [{"measurement": "delay of administration at which effectiveness is lost (therapeutic window)", "setting": "models of excitotoxicity", "result": 30, "unit": "min"}]}
